Source: patent publication US20070049564A1 (Wyeth, priority 2005, published 2007)
≈ marks a conversion by molar mass, not a printed value. Like-named read-outs stand apart in the source and are kept apart here.

Key:
[1] = tested on: E. coli GC 2236; assay: MIC, broth microdilution; conditions: Escherichia coli
[2] = tested on: E. coli GC 2233; assay: MIC, broth microdilution; conditions: Escherichia coli
[3] = tested on: E. coli GC 2234; assay: MIC, broth microdilution; conditions: Escherichia coli
[4] = tested on: E. coli GC 2272; assay: MIC, broth microdilution; conditions: Escherichia coli
[5] = tested on: E. coli GC 6465; assay: MIC, broth microdilution; conditions: Escherichia coli
[6] = tested on: E. coli GC 1073; assay: MIC, broth microdilution; conditions: Escherichia coli
[7] = tested on: S. aureus GC 1131; assay: MIC, broth microdilution; conditions: Staphylococcus aureus
[8] = tested on: S. aureus GC 6466; assay: MIC, broth microdilution; conditions: Staphylococcus aureus
[9] = tested on: S. aureus GC 1079; assay: MIC, broth microdilution; conditions: Staphylococcus aureus
[10] = tested on: S. aureus GC 4536; assay: MIC, broth microdilution; conditions: Staphylococcus aureus
[11] = tested on: S. aureus GC 6469; assay: MIC, broth microdilution; conditions: Staphylococcus aureus
[12] = tested on: S. epidermidis GC 4935; assay: MIC, broth microdilution; conditions: Staphylococcus epidermidis
[13] = tested on: E. faecalis GC 4555; assay: MIC, broth microdilution; conditions: Enterococcus faecalis
[14] = tested on: E. faecalis GC 2265; assay: MIC, broth microdilution; conditions: Enterococcus faecalis
[15] = tested on: E. faecium GC 2243; assay: MIC, broth microdilution; conditions: Enterococcus faecium
[16] = tested on: S. pneumoniae+ GC 4465; assay: MIC, broth microdilution; conditions: Streptococcus pneumoniae
[17] = tested on: S. pyogenes GC 4563; assay: MIC, broth microdilution; conditions: Streptococcus pyogenes
[18] = tested on: c. albicans GC 3066; assay: MIC, broth microdilution
[19] = tested on: Staph.; assay: Range of MIC for Staph. strains, including MRSA; conditions: Staphylococcus aureus

MIC ([1]; GC2236, read-out: MINIMAL INHIBITORY CONCENTRATION MIC, Human Serum): > 64 µg/mL | MIC ([1]; GC2236, read-out: MINIMAL INHIBITORY CONCENTRATION MIC, Mouse Serum): > 64 µg/mL | MIC ([1]; GC2236, read-out: MINIMAL INHIBITORY CONCENTRATION MIC, Water): > 64 µg/mL | MIC ([2]; GC2233, read-out: MINIMAL INHIBITORY CONCENTRATION MIC, Human Serum): > 64 µg/mL | MIC ([2]; GC2233, read-out: MINIMAL INHIBITORY CONCENTRATION MIC, Mouse Serum): > 64 µg/mL | MIC ([2]; GC2233, read-out: MINIMAL INHIBITORY CONCENTRATION MIC, Water): > 64 µg/mL | MIC ([3]; GC2234, read-out: MINIMAL INHIBITORY CONCENTRATION MIC, Human Serum): > 64 µg/mL | MIC ([3]; GC2234, read-out: MINIMAL INHIBITORY CONCENTRATION MIC, Mouse Serum): > 64 µg/mL | MIC ([3]; GC2234, read-out: MINIMAL INHIBITORY CONCENTRATION MIC, Water): > 64 µg/mL | MIC ([4]; GC2272, read-out: MINIMAL INHIBITORY CONCENTRATION MIC, Human Serum): 32 µg/mL (≈ 49.7 µM) | MIC ([4]; GC2272, read-out: MINIMAL INHIBITORY CONCENTRATION MIC, Mouse Serum): 32 µg/mL (≈ 49.7 µM) | MIC ([4]; GC2272, read-out: MINIMAL INHIBITORY CONCENTRATION MIC, Water): 64 µg/mL (≈ 99.4 µM) | MIC ([5]; GC6465, read-out: MINIMAL INHIBITORY CONCENTRATION MIC, Human Serum): > 64 µg/mL | MIC ([5]; GC6465, read-out: MINIMAL INHIBITORY CONCENTRATION MIC, Mouse Serum): > 64 µg/mL | MIC ([5]; GC6465, read-out: MINIMAL INHIBITORY CONCENTRATION MIC, Water): > 64 µg/mL | MIC ([6]; GC1073, read-out: MINIMAL INHIBITORY CONCENTRATION MIC, Human Serum): > 64 µg/mL | MIC ([6]; GC1073, read-out: MINIMAL INHIBITORY CONCENTRATION MIC, Mouse Serum): > 64 µg/mL | MIC ([6]; GC1073, read-out: MINIMAL INHIBITORY CONCENTRATION MIC, Water): > 64 µg/mL | MIC ([7]; GC1131, read-out: MINIMAL INHIBITORY CONCENTRATION MIC, Human Serum): 2 µg/mL (≈ 3.11 µM) | MIC ([7]; GC1131, read-out: MINIMAL INHIBITORY CONCENTRATION MIC, Mouse Serum): 2 µg/mL (≈ 3.11 µM) | MIC ([7]; GC1131, read-out: MINIMAL INHIBITORY CONCENTRATION MIC, Water): 8 µg/mL (≈ 12.4 µM) | MIC ([8]; GC6466, read-out: MINIMAL INHIBITORY CONCENTRATION MIC, Human Serum): 4 µg/mL (≈ 6.21 µM) | MIC ([8]; GC6466, read-out: MINIMAL INHIBITORY CONCENTRATION MIC, Mouse Serum): 4 µg/mL (≈ 6.21 µM) | MIC ([8]; GC6466, read-out: MINIMAL INHIBITORY CONCENTRATION MIC, Water): 8 µg/mL (≈ 12.4 µM) | MIC ([9]; GC1079, read-out: MINIMAL INHIBITORY CONCENTRATION MIC, Human Serum): 2 µg/mL (≈ 3.11 µM) | MIC ([9]; GC1079, read-out: MINIMAL INHIBITORY CONCENTRATION MIC, Mouse Serum): 2 µg/mL (≈ 3.11 µM) | MIC ([9]; GC1079, read-out: MINIMAL INHIBITORY CONCENTRATION MIC, Water): 4 µg/mL (≈ 6.21 µM) | MIC ([10]; GC4536, read-out: MINIMAL INHIBITORY CONCENTRATION MIC, Human Serum): 2 µg/mL (≈ 3.11 µM) | MIC ([10]; GC4536, read-out: MINIMAL INHIBITORY CONCENTRATION MIC, Mouse Serum): 2 µg/mL (≈ 3.11 µM) | MIC ([10]; GC4536, read-out: MINIMAL INHIBITORY CONCENTRATION MIC, Water): 4 µg/mL (≈ 6.21 µM) | MIC ([11]; GC6469, read-out: MINIMAL INHIBITORY CONCENTRATION MIC, Human Serum): 2 µg/mL (≈ 3.11 µM) | MIC ([11]; GC6469, read-out: MINIMAL INHIBITORY CONCENTRATION MIC, Mouse Serum): 2 µg/mL (≈ 3.11 µM) | MIC ([11]; GC6469, read-out: MINIMAL INHIBITORY CONCENTRATION MIC, Water): 4 µg/mL (≈ 6.21 µM) | MIC ([12]; GC4935, read-out: MINIMAL INHIBITORY CONCENTRATION MIC, Human Serum): 8 µg/mL (≈ 12.4 µM) | MIC ([12]; GC4935, read-out: MINIMAL INHIBITORY CONCENTRATION MIC, Mouse Serum): 8 µg/mL (≈ 12.4 µM) | MIC ([12]; GC4935, read-out: MINIMAL INHIBITORY CONCENTRATION MIC, Water): 16 µg/mL (≈ 24.9 µM) | MIC ([13]; GC4555, read-out: MINIMAL INHIBITORY CONCENTRATION MIC, Human Serum): 2 µg/mL (≈ 3.11 µM) | MIC ([13]; GC4555, read-out: MINIMAL INHIBITORY CONCENTRATION MIC, Mouse Serum): 4 µg/mL (≈ 6.21 µM) | MIC ([13]; GC4555, read-out: MINIMAL INHIBITORY CONCENTRATION MIC, Water): 4 µg/mL (≈ 6.21 µM) | MIC ([14]; GC2265, read-out: MINIMAL INHIBITORY CONCENTRATION MIC, Human Serum): 4 µg/mL (≈ 6.21 µM) | MIC ([14]; GC2265, read-out: MINIMAL INHIBITORY CONCENTRATION MIC, Mouse Serum): 8 µg/mL (≈ 12.4 µM) | MIC ([14]; GC2265, read-out: MINIMAL INHIBITORY CONCENTRATION MIC, Water): 8 µg/mL (≈ 12.4 µM) | MIC ([15]; GC2243, read-out: MINIMAL INHIBITORY CONCENTRATION MIC, Human Serum): 2 µg/mL (≈ 3.11 µM) | MIC ([15]; GC2243, read-out: MINIMAL INHIBITORY CONCENTRATION MIC, Mouse Serum): 2 µg/mL (≈ 3.11 µM) | MIC ([15]; GC2243, read-out: MINIMAL INHIBITORY CONCENTRATION MIC, Water): 4 µg/mL (≈ 6.21 µM) | MIC ([16]; read-out: MINIMAL INHIBITORY CONCENTRATION MIC, Human Serum): 2 µg/mL (≈ 3.11 µM) | MIC ([16]; read-out: MINIMAL INHIBITORY CONCENTRATION MIC, Mouse Serum): 4 µg/mL (≈ 6.21 µM) | MIC ([16]; read-out: MINIMAL INHIBITORY CONCENTRATION MIC, Water): 4 µg/mL (≈ 6.21 µM) | MIC ([17]; GC4563, read-out: MINIMAL INHIBITORY CONCENTRATION MIC, Human Serum): 0.5 µg/mL (≈ 0.777 µM) | MIC ([17]; GC4563, read-out: MINIMAL INHIBITORY CONCENTRATION MIC, Mouse Serum): 1 µg/mL (≈ 1.55 µM) | MIC ([17]; GC4563, read-out: MINIMAL INHIBITORY CONCENTRATION MIC, Water): 2 µg/mL (≈ 3.11 µM) | MIC ([18]; Candida albicans, GC3066, read-out: MINIMAL INHIBITORY CONCENTRATION MIC): > 64 µg/mL | MINIMAL INHIBITORY CONCENTRATION MIC ([18]; Human Serum): >64 UG/ML | MINIMAL INHIBITORY CONCENTRATION MIC ([18]; Mouse Serum): >64 UG/ML | MIC ([19]; MRSA, read-out: Range of MIC, Staph (Mouse Serum)): 2 to 8 µg/mL (≈ 3.11 to 12.4 µM) | MIC ([19]; MRSA, read-out: Range of MIC, Staph (Water)): 4 to 16 µg/mL (≈ 6.21 to 24.9 µM) | MIC ([19]; read-out: Minimum inhibitory concentration (MIC), Staph (Human Serum)): 2 to 8 µg/mL (≈ 3.11 to 12.4 µM) | MIC ([19]; read-out: Minimum inhibitory concentration (MIC), Staph (Water)): 4 to 16 µg/mL (≈ 6.21 to 24.9 µM)
SMILES: COC(=O)N(CC(=O)Nc1cc(N(C)C)c2c(c1O)C(=O)C1=C(O)[C@]3(O)C(=O)C(C(N)=O)=C(O)[C@@H](N(C)C)[C@@H]3C[C@@H]1C2)C(C)(C)C [Example 60, methyl 2-{[(5aR,6aS,7S,10aS)-9-(aminocarbonyl)-4,7-bis(dimethylamino)-1,8,10a,11-tetrahydroxy-10,12-dioxo-5,5a,6,6a,7,10,10a,12-octahydrotetracen-2-yl]amino}-2-oxoethyl(tert-butyl)carbamate]
